Source: patent US5627160A, “L-2',3'-dideoxy nucleoside analogs as anti-hepatitis B (HBV) and anti-HIV agents” (priority 1993, dated 1997)
Entries after “also recorded” stand apart in the source; their conditions may differ. Read-outs that look alike come from different tables or passages of the source.

How the values were obtained:
[1] = test system: Hepatitis B virus; details: Chang et al., 1992; cited from earlier work
[2] = test system: human immunodeficiency virus (HIV); details: Larder et al., 1990, cited from earlier work
[3] = test system: Hepatitis B viral infections; details: chronic HBV infection; foscarnet in fulminant hepatitis; cited from earlier work
[4] = Cellular toxicity in T-lymphoblastoic cell line (CEM), cell numbers 3 days post treatment; assay type: cell-based; details: human; CEM cells, 3 days; read-out: Cytotoxicity CEM Cells ID50
Method: (§1) To determine the cellular toxicity of the present compounds, the T-lymphoblastoic cell line (CEM) was used. Cells were subjected to varying concentrations of the drug(s) and cell numbers were determined 3 days post treatment by the method described by Chen, C-H and Cheng, Y-C J. Biol. Chem., 264, 11934 (1989). Concentrations of the drug which would result in 50% killing of the cell populations were determined from the plot generated by representing cell numbers corresponding to the individual drug concentrations.

[5] = test system: HBV; assay: Inhibition of HBV replication (secreted viral DNA, Southern analysis) in 2.2.15 cells; assay type: cell-based, Hepatitis B virus (in human hepatoma cell line 2.2.15); details: for IC50: Hepatitis B virus, 144 h, 2.2.15 cells, read-out: Anti-HBV ID50; for Activity against HBV, comparison / Inhibition of HBV DNA replication: in words
Method: The biological activity of the present compounds was assessed as described by Doong, S-L, et al., Proc. Natl. Acad. Sci. U.S.A 88, 8495-8499 (1991). The human hepatoma cell line carrying the HBV (designated 2.2.15) kindly provided by Dr. G. Acs was used in the study. Price, et al., Proc. Natl. Acad. Sci. U.S.A. 86, 8541 (1989). Briefly, six day-old cultures were treated with varying concentrations of the drug in the culture medium (Minimum essential medium with Earl's salts and 10% fetal bovine serum). The drug was left in the culture medium for a period of 3 days after which period the medium was aspirated and fresh medium containing the same concentration(s) of the drug was added. At the end of the subsequent 3 day period the culture medium was harvested. The culture medium was processed for obtaining the virions by the polyethylene glycol precipitation method (Doong, et al., supra). Viral DNA thus recovered from the secreted particles was subjected to Southern analysis. Inhibition of the viral replication was determined by the comparison of the viral DNA from drug-treated versus control cultures not treated with the drug.

[6] = test system: HIV-1 (HTLV-IIIB Strain); assay: Anti-HIV drug susceptibility assay in MT-2 cells (MTT dye reduction); assay type: cell-based; details: for IC50: MT-2 cells; for Anti-HIV activity compared with ddC: in words
Method: Drug susceptibility assay for determining the effectiveness of the compounds of the present invention against HIV in MT-2 cells is a modification of the assay described in Mellors, et al., Molecular Pharmacology, 41, 446 (1992). Drug-mediated inhibition of virus-induced cell toxicity was measured by the A595 of MTT ([3-I 4,5-dimethyl thiazol-2-yl]-2,3-diphenyltetrazolium bromide) (Sigma M-2128). Triplicate wells of a 96 well plate which contains 1×10^4 MT2 cells (AIDS-repository) were infected with HIV-1 (HTLV-IIIB Strain-R.C. Gallo) at a multiplicity of 0.01 TCID50 /cell. MT-2 cells in RPMI 1640 media supplemented with 10% dialysized fetal bovine and 100 ug/ml Kanamycin were infected with virus and immediately added to serial dilution of the drug. After 5 days, 20 ul of MTT dye (2.5 mg/ml in PBS) was added per well. At the end of a four hour incubation period 150 ul of acidified 2-propanol with NP-40 non-ionic detergent was added. After the crystals of dye dissolve (usually 1-2 days), the plates are read on a micro-plate reader. Using this MTT-dye reduction method (as set forth by Larder, et al., Antimicrobial Agents and Chemotherapy, 34, 436 (1990), the percentage of protection can be calculated using the formula [(a-b/c-b)×100] in which a=A595 of drug treated cells, b is […] and c is the A595 of the non-drug infected cells.

[7] = test system: CEM Cells; assay: Cellular toxicity in T-lymphoblastoic cell line (CEM), cell numbers 3 days post treatment; assay type: cell-based; details: in words, β-L-ddC / β-L-FddC versus ddC
Method: as §1

[8] = in vitro; details: human, cem cells
Method: (§2) The effects of the various drug concentrations on mitochondrial DNA (mt DNA) was evaluated by the method described by Chen and Cheng, supra. CEM cells treated with varying concentrations of the drug were collected by centrifugation. After washing the cells with phosphate buffered saline, cells were lysed by suspending the cells in 10 mM Tris-HCl (pH 7.0) and repeating freeze thaw cycles. The resulting cells were then subjected to RNase A treatment at a final enzyme concentration of 10 ug/ml, followed by proteinase K treatment (100 ug/ml) for 1 hour. The DNA thus obtained by this procedure was then immobilized on nylon membrane after the addition of 0.8 vol of NaI and boiling for 10 minutes. Hybridization of the resulting DNA to a mt DNA specific probe was performed by following the method of Doong, S-L, supra and autoradiography was also performed. Quantitative estimates were obtained by scanning densitometer. The blots were stripped of the mtDNA probe and rehybridized to human Alu sequence probe to determine the amounts of DNA for normalization and estimation of absolute amounts of the mt DNA.

[9] = in words; cited from earlier work
[10] = test system: mitochondrial DNA (mt DNA)
Method: as §2

[11] = Human immunodeficiency virus 1, MT2, 120 h, HIV-1 HTLV-IIIB, Table 1, read-out: Anti-HIV ID50
[12] = Human immunodeficiency virus 1, IIIB, MT2, 120 h, read-out: ID50 concentration required to inhibit viral replication (HIV)

In the case of `Nc1nc(=O)n([C@@H]2CS[C@H](CO)O2)cc1F` (relative stereo) [(±)5-FSddC], the “Activity against Hepatitis B virus in culture” value (“Activity … in culture” for short) [1] is listed as “potent activity”.

In the case of `Nc1ccn([C@@H]2CS[C@H](CO)O2)c(=O)n1` (relative stereo) [(±) SddC, (+) and (-)-2',3'-Dideoxy-3'-thiacytidine], the “Activity … in culture” value [1] is listed as “potent inhibitors of Hepatitis B virus”.

For `Nc1ccn([C@H]2CS[C@@H](CO)O2)c(=O)n1` (stereo in doubt) [(-)isomer, (-)-2',3'-Dideoxy-3'-thiacytidine], the “Activity … in culture” value [1] is given as “potent activity” and the Toxicity [1] is given as “relatively low toxicity”.

For `[N-]=[N+]=N[C@H]1C[C@H](n2ccc(=O)[nH]c2=O)O[C@@H]1CO` [3'-azido-2',3'-dideoxyuridine], the “Activity against human immunodeficiency virus” value [2] is given as “significant activity”.

For `Nc1ncnc2c1ncn2[C@H]1C[C@H](F)[C@@H](CO)O1` [3'-fluoro-2',3'-dideoxyadenosine], the “Activity against human immunodeficiency virus” value [2] is given as “significant activity”.

In the case of `Cc1cn([C@H]2C[C@H](F)[C@@H](CO)O2)c(=O)[nH]c1=O` [3'-fluoro-3'-deoxythymidine], the “Activity against human immunodeficiency virus” value [2] is given as “significant activity”.

For `Cc1cn([C@H]2C[C@H](N=[N+]=[N-])[C@@H](CO)O2)c(=O)[nH]c1=O` [AZT, 3'-azido-3'deoxythymidine], the “Success of therapy of hepatitis B” value [3] is given as “little, if any, success”.

In the case of `Nc1nc2c(ncn2[C@H]2C=C[C@@H](CO)C2)c(=O)[nH]1` [Carbovir, carbocyclic analog of 2',3'-dideoxy-2',3'-didehydroguanosine], the “Activity against human immunodeficiency virus” value [2] is given as “significant activity”.

In the case of `Nc1ccn([C@H]2C=C[C@@H](CO)O2)c(=O)n1` [Compound D4C, 2',3'-dideoxy-2',3'-didehydrocytidine], the “Activity against human immunodeficiency virus” value [2] is listed as “significant activity”.

For `Cc1cn([C@H]2C=C[C@@H](CO)O2)c(=O)[nH]c1=O` [Compound D4T, 3'-deoxy-2',3'-didehydrothymidine], the “Activity against human immunodeficiency virus” value [2] is given as “significant activity”.

In the case of `OC[C@@H]1CC[C@H](n2cnc3c(O)ncnc32)O1` [DDI, 2',3'-dideoxyinosine], the “Activity against human immunodeficiency virus” value [2] is given as “significant activity”.

For `Nc1nc2c(ncn2COCCO)c(=O)[nH]1` [acyclovir], the “Success of therapy of hepatitis B” value [3] is given as “little, if any, success”.

For `Nc1ncnc2c1ncn2[C@@H]1O[C@H](CO)[C@@H](O)[C@@H]1O` [adenine arabinoside], the “Success of therapy of hepatitis B” value [3] is listed as “limited success”.

In the case of `Nc1nc(=O)n([C@H]2CC[C@H](CO)O2)cc1F` [alpha-L-FddC, 1(2,3-dideoxy-alpha-L-ribofuranosyl)-5-fluorocytosine], the CC50 at 72 h [4] is reported as over 100000 nM, the IC50 [5] is reported as 500 nM and the IC50 [6, 11] is reported as 300 nM.

For `Nc1ccn([C@H]2CC[C@H](CO)S2)c(=O)n1` [alpha-L-ddSC, 1(2,3-dideoxy-4-thio-alpha-L-ribofuranosyl) cytosine], the CC50 at 72 h [4] was over 100000 nM, the IC50 [5] was over 500 nM and the IC50 [6, 11] was over 100000 nM.

In the case of `Nc1ncnc2c1ncn2[C@@H]1O[C@H](COP(=O)(O)O)[C@@H](O)[C@@H]1O` [ara-AMP], the “Success of therapy of hepatitis B” value [3] is listed as “limited success”.

For `Nc1ccn([C@H]2CC[C@@H](CO)O2)c(=O)n1` [ddC, 1-(2,3-dideoxy-beta-D-ribofuranosyl)cytosine, reference compound], the CC50 at 72 h [4] was 28000 nM, the “Cellular cytotoxicity, comparison with ddC” value (from here on “Cellular cytotoxicity”) [7] was “much more cytotoxic; also recorded: more cytotoxic than β-L-FddC” and the IC50 [5] was 2800 nM. For the same compound, the IC50 [8] was 22 nM, the IC50 [6, 12] was 28 nM and the “Anti-HIV activity compared with ddC” value [6] was “less active against HIV”. The “Activity against human immunodeficiency virus” value [2] was “among the most potent inhibitors of HIV”, the “Activity against human immunodeficiency virus” value ([2]; listed as DDC) was “significant activity” and the Dose limiting toxicity [9] was “severe neuropathy”.

For `O=C(O)P(=O)(O)O` [foscarnet], the “Success of therapy of hepatitis B” value [3] is given as “little, if any, success”.

For `Nc1nc(=O)n([C@@H]2CC[C@H](CO)O2)cc1F` [β-L-FddC, 1-(2,3-dideoxy-beta-L-ribofuranosyl)-5-fluorocytosine], the CC50 at 72 h [4] was 67000 nM, the “Cellular cytotoxicity” value [7] was “considerably less” and the IC50 [5] was 10 nM. For the same compound, the “Activity against HBV, comparison” value [5] was “several fold higher activity against HBV”, the “Inhibition of HBV DNA replication” value [5] was “efficiently inhibited” and the IC50 [8] was over 100000 nM. The “Difference of anti-HIV ID50, β-L-FddC versus ddC” value ([6]; 0.007 vs 0.028 micromolar) was 4 fold, the IC50 [6, 12] was 7 nM and the “Anti-HIV activity compared with ddC” value [6] was “significantly more effective than ddC; also recorded: several fold higher activity against HIV”. The “Effect on host mitochondrial DNA” value [10] was “relatively little effect” and the “Toxicity associated with dose limiting neuropathy” value [10] was “virtually no toxicity associated with dose limiting neuropathy”.

In the case of `Nc1ccn([C@@H]2CC[C@H](CO)O2)c(=O)n1` [β-L-ddC, 1-(2,3-dideoxy-beta-L-ribofuranosyl)cytosine], the CC50 at 72 h [4] is reported as 70000 nM, the “Cellular cytotoxicity” value [7] is reported as “considerably less” and the IC50 [5] is reported as 10 nM. The “Activity against HBV, comparison” value [5] was “several fold higher activity against HBV”, the “Inhibition of HBV DNA replication” value [5] was “efficiently inhibited” and the IC50 [8] was over 100000 nM. It also gave an IC50 [6, 11] of 350 nM.

With `Nc1ccn([C@@H]2CC[C@H](CO)S2)c(=O)n1` [β-L-ddSC, 1-(2,3-dideoxy-4-thio-beta-L-ribofuranosyl)cytosine] the CC50 at 72 h [4] was over 100000 nM, the IC50 [5] was over 500 nM and the IC50 [6, 11] was 70000 nM.

For interferon alpha, the “Success of therapy of hepatitis B” value [3] is listed as “limited success”.
